The target of this assay is T1, AMPK complex 1 (containing alpha1beta1gamma1) (Homo sapiens, UniProt Q13131+Q9Y478).
T1 construct: GST (Glutathion S transferase) (N); made in house; host or cells: baculovirus; virus made in Sf9, expression in High Five cells
T1 sequence (Q13131 whole entry): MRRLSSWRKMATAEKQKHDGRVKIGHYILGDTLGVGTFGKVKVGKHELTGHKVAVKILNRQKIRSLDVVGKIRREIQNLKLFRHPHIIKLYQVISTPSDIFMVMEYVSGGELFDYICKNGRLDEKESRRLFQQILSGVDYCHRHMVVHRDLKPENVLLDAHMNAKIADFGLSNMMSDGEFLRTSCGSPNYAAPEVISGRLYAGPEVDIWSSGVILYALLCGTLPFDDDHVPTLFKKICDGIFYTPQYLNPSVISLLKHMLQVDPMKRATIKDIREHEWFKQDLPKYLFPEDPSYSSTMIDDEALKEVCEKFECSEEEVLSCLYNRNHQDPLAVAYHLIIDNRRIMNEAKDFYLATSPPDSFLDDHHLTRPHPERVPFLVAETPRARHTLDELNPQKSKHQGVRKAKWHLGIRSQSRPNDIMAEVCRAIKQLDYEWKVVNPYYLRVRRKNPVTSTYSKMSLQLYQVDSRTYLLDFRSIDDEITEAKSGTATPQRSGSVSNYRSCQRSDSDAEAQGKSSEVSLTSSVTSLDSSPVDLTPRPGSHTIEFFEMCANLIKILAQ
T1 sequence (Q9Y478 whole entry): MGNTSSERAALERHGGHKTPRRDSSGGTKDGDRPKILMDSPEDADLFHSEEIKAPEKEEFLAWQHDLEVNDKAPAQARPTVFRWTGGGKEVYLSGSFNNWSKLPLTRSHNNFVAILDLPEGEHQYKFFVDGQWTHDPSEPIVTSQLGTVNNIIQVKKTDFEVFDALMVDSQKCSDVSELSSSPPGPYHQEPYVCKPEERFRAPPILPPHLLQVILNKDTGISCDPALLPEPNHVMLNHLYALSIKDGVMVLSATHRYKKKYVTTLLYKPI
T1 sequence (P54619 whole entry partner): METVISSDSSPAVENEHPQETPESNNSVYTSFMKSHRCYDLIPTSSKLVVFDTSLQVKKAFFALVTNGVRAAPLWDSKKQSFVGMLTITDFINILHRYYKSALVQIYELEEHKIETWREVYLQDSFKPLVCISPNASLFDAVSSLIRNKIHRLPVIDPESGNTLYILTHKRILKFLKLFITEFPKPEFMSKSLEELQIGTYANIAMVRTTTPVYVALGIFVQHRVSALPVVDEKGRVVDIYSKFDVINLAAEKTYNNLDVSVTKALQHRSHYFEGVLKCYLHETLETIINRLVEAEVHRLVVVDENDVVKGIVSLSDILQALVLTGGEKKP
In words: In vitro AMPK activation assay (ADP-Glo Kinase Assay). It is filed as biochemical. Particulars: 30 μM ATP, 1 μM peptide, 60 min, room temperature. The source says:
Activated AMPK complex 1 (containing alpha1beta1gamma1) was obtained from baculovirus expression system. The gene encoding AMPK alpha1 was cloned into the pACG2T vector (BD Biosciences) to obtain a N-terminal Glutathion S transferase (GST)-fusion protein. The genes encoding AMPK beta 1 and gamma1 were cloned into the p2Bac dual multiple cloning site vector (Invitrogen) with beta1 under the control of the p10 promoter and gamma1 under the control of the PH promoter. The transfer vectors containing AMPK were co-transfected individually with AcPNV BacMagic-3 DNA (EMD Millipore) in Sf9 cells and the recombinant baculoviruses were harvested after 5 days, followed by 3 rounds of amplification of the virus stock in Sf9 cells. AMPK (alpha1beta1gamma1) was expressed in High Five 5 cells by co-infection of recombinant alpha1 virus and recombinant beta1/gamma1 virus for 72 h at 27° C. Cells were harvested by centrifugation and lysed by 3 freeze/thaw cycles in PBS with 10% glycerol and protease inhibitor cocktail (Roche). After centrifugation AMPK a1b1g1 in the supernatant was captured by immobilized glutathione (GE Healthcare), impurities were washed away with PBS and AMPK alpha1beta1gamma1 was eluted with PBS containing 20 mM reduced gluthathione. The protein buffer was then exchanged to PBS with 10% glycerol and protein concentration was determined by UV absorbance.
The white 384-well Optiplates (cat.no. 6007299) were purchased from PerkinElmer. The V9101 ADP-Glo Kinase Assay and ultra pure ATP (V915A) was purchased from Promega. The substrate for AMPK (NH2-HMRSAMSGLHLVKRR_CONH2) was purchased from Upstate (12-355).
Compounds were tested in either serial dilutions or single dose concentrations. The serial compound dilutions were prepared in 100% DMSO automatically. The final DMSO concentration in the assay was 0.1%.
The Compound Stock Solutions were 10 mM in 100% DMSO. The compounds were solubilised at room temperature.
In the 384-well plates 1.25 ul of test compound in assay buffer was mixed with 1.25 ul of AMPK and 1.25 μl of the peptide (final concentration of 1 μM) and 1.25 μl of ATP (final concentration of 30 μM), both dissolved in assay buffer. This step was followed by an incubation time of 60 min. Then 5 μl of ADP Glo Reagent was added. This was followed by 40 min of incubation. Then 10 μl of Kinase Detection Reagent was admixed. The plates were sealed and after an incubation period of 30 min, the luminescence signal was measured in an Envision reader. All incubation steps were accomplished at room temperature.
Each assay microtiter plate contained wells with vehicle controls instead of compound (0.1% DMSO in water) as reference for the low signal (100% CTL, low signal), and wells with serial dilutions of AMP (final 30 μM) as reference for high signals.
The luminescence signal generated was proportional to the ADP concentration produced and was correlated with AMPK activity. The analysis of the data was performed by the calculation of the percentage of ATP consumption of AMPK in the presence of the test compound compared to the consumption of ATP in the presence of AMPK without compound. (RLU(sample)/RLU(low control))*100[RLU=relative luminescence units]
An activator of the AMPK enzyme gave values above 100% CTL.
EC50 values based on dose response curves are calculated with the XIFIT software using the 4 Parameter Logistic Model or Sigmoidal Dose-Response Model.
(ADP-Glo first removes unused ATP, then detects ADP through luciferase.)
In the case of `O=C(N=S1(=O)CCCCC1)c1ccc(-c2nc3[nH]c(O[C@@H]4CO[C@H]5[C@@H]4OC[C@H]5O)nc3cc2Cl)cc1` [Example 24, 4-[6-Chloro-2-((3R,3aR,6R,6aR)-6-hydroxy-hexahydro-furo[3,2-b]furan-3-yloxy)-3H-imidazo[4,5-b]pyridin-5-yl]-N-(1-oxo-hexahydro-1λ6-thiopyran-1-ylidene)-benzamide], the EC50 – broadly, the midpoint of the concentration-response curve – turned out to be 215 nM.
Under `CS(C)(=O)=Nc1cnc(-c2ccc(-c3nc4[nH]c(O[C@@H]5CO[C@H]6[C@@H]5OC[C@H]6O)nc4cc3Cl)cc2)cn1` [Example 39, N-(5-{4-[6-Chloro-2-((3R,3aR,6R,6aR)-6-hydroxyhexahydrofuro[3,2-b]furan-3-yloxy)-3H-imidazo[4,5-b]pyridin-5-yl]-phenyl}-pyrazin-2-yl)-S,S-dimethylsulfoximide] stands 8 nM; under `CS(C)(=N)=Nc1ccc(-c2ccc(-c3nc4[nH]c(O[C@@H]5CO[C@H]6[C@@H]5OC[C@H]6O)nc4cc3Cl)cc2)cc1` [Example 17, N-(4′-(6-Chloro-2-((3R,3aR,6R,6aR)-6-hydroxyhexahydrofuro[3,2-b]furan-3-yloxy)-3H-imidazo[4,5-b]pyridin-5-yl)biphenyl-4-yl)-S,S-dimethyl-sulfondiimine], 1 nM.
Regarding `CC(C)S(C)(=O)=Nc1ccc(-c2ccc(-c3nc4[nH]c(O[C@@H]5CO[C@H]6[C@@H]5OC[C@H]6O)nc4cc3Cl)cc2)cc1` (stereo partly drawn) [Example 18, N-(4′-(6-Chloro-2-((3R,3aR,6R,6aR)-6-hydroxyhexahydrofuro[3,2-b]furan-3-yloxy)-3H-imidazo[4,5-b]pyridin-5-yl)biphenyl-4-yl)-S-isopropyl-S-methylsulfoximide], the 50% effective concentration (EC50) came to 34 nM.
Turning to `O=S1(=Nc2ccc(-c3ccc(-c4nc5[nH]c(O[C@@H]6CO[C@H]7[C@@H]6OC[C@H]7O)nc5cc4Cl)cc3)cc2)CCCC1` [Example 8, (3R,3aR,6R,6aR)-6-{6-Chloro-5-[4′-(1-oxo-tetrahydro-1λ4-thiophen-1-ylideneamino)-biphenyl-4-yl]-3H-imidazo[4,5-b]pyridin-2-yloxy}-hexahydro-furo[3,2-b]furan-3-ol], a half-maximal response (EC50) required 4 nM.
Molecule `CS(C)(=O)=NCc1ccc(-c2ccc(-c3nc4[nH]c(O[C@@H]5CO[C@H]6[C@@H]5OC[C@H]6O)nc4cc3Cl)cc2)nc1` [Example 48, N-(6-(4-(6-Chloro-2-((3R,3aR,6R,6aR)-6-hydroxyhexahydrofuro[3,2-b]furan-3-yloxy)-3H-imidazo[4,5-b]pyridin-5-yl)phenyl)pyridin-3-ylmethyl)-S,S-dimethylsulfoximide] yielded an EC50 of 16 nM.
For the molecule `CS(=N)(=O)[C@H]1CC[C@@H](c2ccc(-c3nc4[nH]c(O[C@@H]5CO[C@H]6[C@@H]5OC[C@H]6O)nc4cc3Cl)cc2)CC1` (stereo partly drawn) [Example 33, cis-(3R,3aR,6R,6aR)-6-(6-Chloro-5-[4-{4-(S-methylsulfonimidoyl)-cyclohexyl}-phenyl]-3H-imidazo[4,5-b]pyridin-2-yloxy)-hexahydro-furo[3,2-b]furan-3-ol], the half-maximal effective concentration (EC50) amounted to 265 nM.
Consider `CCS(=O)(CC)=Nc1ccc(-c2ccc(-c3nc4[nH]c(O[C@@H]5CO[C@H]6[C@@H]5OC[C@H]6O)nc4cc3Cl)cc2)cc1` [Example 11, N-(4′-(6-Chloro-2-((3R,3aR,6R,6aR)-6-hydroxyhexahydrofuro[3,2-b]furan-3-yloxy)-3H-imidazo[4,5-b]pyridin-5-yl)biphenyl-4-yl)-S,S-diethylsulfoximide], for which the EC50 amounted to 3 nM.
As for `CS(=O)(=NC(=O)c1ccc(-c2nc3[nH]c(O[C@@H]4CO[C@H]5[C@@H]4OC[C@H]5O)nc3cc2Cl)cc1)C1CCOCC1` (stereo partly drawn) [Example 20, N-4-(6-Chloro-2-((3R,3aR,6R,6aR)-6-hydroxyhexahydrofuro[3,2-b]furan-3-yloxy)-3H-imidazo[4,5-b]pyridin-5-yl)benzoyl-S-methyl-S-(tetrahydro-2H-pyran-4-yl)-sulfoximine], the EC50 was found to be 776 nM.
Under `CN=S(C)(=O)c1ccc(N2CCN(c3nc4[nH]c(O[C@@H]5CO[C@H]6[C@@H]5OC[C@H]6O)nc4cc3Cl)CC2)cc1` (stereo partly drawn) [Example 29, (3R,3aR,6R,6aR)-6-(6-Chloro-5-(4-(4-(N,S-dimethylsulfonimidoyl)phenyl)piperazin-1-yl)-3H-imidazo[4,5-b]pyridin-2-yloxy)hexahydrofuro[3,2-b]furan-3-ol] stands 725 nM; under `CS(C)(=O)=Nc1cccc(-c2ccc(-c3nc4[nH]c(O[C@@H]5CO[C@H]6[C@@H]5OC[C@H]6O)nc4cc3Cl)cc2)c1` [Example 14, N-(4′-(6-Chloro-2-((3R,3aR,6R,6aR)-6-hydroxyhexahydrofuro[3,2-b]furan-3-yloxy)-3H-imidazo[4,5-b]pyridin-5-yl)biphenyl-3-yl)-S,S-dimethylsulfoximide], 6 nM; under `CS(C)(=O)=Nc1cccc(-c2ccc(-c3nc4[nH]c(O[C@@H]5CO[C@H]6[C@@H]5OC[C@H]6O)nc4cc3Cl)cc2)n1` [Example 47, N-(6-{4-[6-Chloro-2-((3R,3aR,6R,6aR)-6-hydroxyhexahydrofuro[3,2-b]furan-3-yloxy)-3H-imidazo[4,5-b]pyridin-5-yl]-phenyl}-pyridin-2-yl)-S,S-dimethylsulfoximide], 67 nM.
The molecule `CS(C)(=O)=NCc1cccc(-c2ccc(-c3nc4[nH]c(O[C@@H]5CO[C@H]6[C@@H]5OC[C@H]6O)nc4cc3Cl)cc2)n1` [Example 35, N-(2-(4-(6-Chloro-2-((3R,3aR,6R,6aR)-6-hydroxyhexahydrofuro[3,2-b]furan-3-yloxy)-3H-imidazo[4,5-b]pyridin-5-yl)phenyl)pyridin-6-ylmethyl)-S,S-dimethylsulfoximide] came in with a concentration for a half-maximal effect (EC50) of 87 nM.
Take `CN=S1(=O)CC2CN(c3ccc(-c4nc5[nH]c(O[C@@H]6CO[C@H]7[C@@H]6OC[C@H]7O)nc5cc4Cl)cc3)CC2C1` (stereo partly drawn) [Example 57, (3R,3aR,6R,6aR)-6-{6-Chloro-5-[4-(2-methylimino-2-oxo-hexahydro-2λ^6-thieno[3,4-c]pyrrol-5-yl)-phenyl]-3H-imidazo[4,5-b]pyridin-2-yloxy}-hexahydro-furo[3,2-b]furan-3-ol]: the concentration giving a half-maximal response (EC50) was determined as 118 nM.
`C[S@@](=O)(=NC(=O)c1ccc(-c2nc3[nH]c(O[C@@H]4CO[C@H]5[C@@H]4OC[C@H]5O)nc3cc2Cl)cc1)c1ccccc1` [Example 16, (S)-N-4-(6-Chloro-2-((3R,3aR,6R,6aR)-6-hydroxyhexahydrofuro[3,2-b]furan-3-yloxy)-3H-imidazo[4,5-b]pyridin-5-yl)benzoyl-S-methyl-5-phenylsulfoximine] yielded an EC50 of 245 nM.
On to `N=S1(=O)CCN(c2ccc(-c3nc4[nH]c(O[C@@H]5CO[C@H]6[C@@H]5OC[C@H]6O)nc4cc3Cl)cc2)CC1` [Example 4], for which a half-maximal effect (EC50) was put at 22 nM.
Molecule `CS(C)(=O)=NCc1ccnc(-c2ccc(-c3nc4[nH]c(O[C@@H]5CO[C@H]6[C@@H]5OC[C@H]6O)nc4cc3Cl)cc2)c1` [Example 46, N-(2-(4-(6-Chloro-2-((3R,3aR,6R,6aR)-6-hydroxyhexahydrofuro[3,2-b]furan-3-yloxy)-3H-imidazo[4,5-b]pyridin-5-yl)phenyl)pyridin-4-ylmethyl)-S,S-dimethylsulfoximide] had an EC50 of 37 nM.

For the origin of these results see patent US9492436B2, “Azabenzimidazole derivatives” (Boehringer Ingelheim International GmbH, priority 2013, dated 2016).
